Source: US20160038519A1, “ADMINISTRATION OF KARENITECIN FOR THE TREATMENT OF ADVANCED OVARIAN CANCER, INCLUDING CHEMOTHERAPY-RESISTANT AND/OR THE MUCINOUS ADENOCARCINOMA SUB-TYPES” (BioNumerik Pharmaceuticals, Inc., priority 2014, published 2016)
Entries after “also recorded” stand apart in the source; their conditions may differ. Where two headings read alike, the source gives them in different places.

What was measured:
[1] = tested on: JHOM2B Cell Line; test: SRB cytotoxicity assay, JHOM2B; assay type: cell-based, human; conditions: Homo sapiens
Description: (§1) In vitro studies were conducted in human mucinous ovarian cancer cell lines including JHOM2B, OMC3, and COV644. In one series of experiments, the dose response curves for BNP1350 (also known as Karenitecin), SN-38 (Irinotecan), and Topotecan were obtained and IC50 values were determined. In a second series of experiments, the effect of BNP7787 (2,2′-dithio-bis-ethane sulfonate; Tavocept) on BNP1350-induced cytotoxicity at selected BNP1350 concentrations was examined.
(§2) The JHOM2B and OMC3 cell lines were purchased from Riken Cell Bank (Japan). The COV644 cell line was purchased from SigmaAldrich. Cells were maintained as monolayered cultures in T-75 flasks and then seeded to microtiter plate wells for experiments. Population doubling-times for these three cell lines were long (i.e., exceeding 40 hours, and for some of the cell lines approaching 96 hours); therefore, the Applicants conducted initial pilot experiments and determined optimal seeding density to obtain A570 values in untreated controls that would fall within the linear range of the SRB assay after seven (7) total days of cell growth. JHOM2B cells were cultured in DMEM:F12 (1:1)+0.1 mM non-essential amino acids (NEAA)+10% FBS and were seeded at 6,000 cells per well. OMC3 cells were cultured in HamF12+10% FBS and were seeded at 8,000 cells per well. COV644 cells were cultured in DMEM+2 mM glutamine+10% FBS and were seeded at 6,000 cells per well.
(§3) The cells were manipulated in a Microzone laminar flow hood traditionally used for maintaining aseptic environments around automated instrumentation such as microplate robots, and the like. Cells were grown and maintained at 37° C. in a humidified atmosphere containing 5% CO2 in a water jacketed cell culture incubator (Forma Scientific). Cells were counted using a ViCell counter (Beckman-Coulter). An automated plate washer/stacker (ELx405/BioStak from BioTek Instruments) and a microplate reader (SpectraMax Plus from Molecular Devices) were used for conducting the SRB assay and determining A570 values for wells in the plates and the percentage of control values. Prior to SRB assays, cell viability was monitored by evaluation of microtiter plate wells. Dead cells detach and float while living cells remain attached to the bottom of the cell well.
SN-38 (Irinotecan; Sigma H0165, lot MKBQ4981) and Topotecan (Sigma T2705, lot 052M4728V) were purchased from SigmaAldrich. BNP1350 (lot KN-C192-135) and BNP7787 (lot 205001) were synthesized at BioNumerik Pharmaceuticals, Inc. (San Antonio, Tex.). BNP1350, SN38, and Topotecan were prepared as 2.5, 2.5, and 25 mM stocks in DMSO (ATCC, cell culture grade).
The sulforhodamine B (SRB) cytotoxicity assay was used to assess cell survival. Briefly, after the medium was decanted from individual plate wells, trichloroacetic acid (100 μL of 10.0 percent solution) was added to each well, and the plates were incubated at 4° C. for 1 hour. The plates were washed five times with water using an automated microplate washer (Model ELx405, Bio-Tek Instruments), SRB solution (100 μL of 0.4% SRB dissolved in 1.0 percent acetic acid) was added, and plates remained at room temperature for 15 minutes. The plates were then washed five times using acetic acid (1.0 percent), air dried, and bound dye was solubilized in Tris base (150 μL, 10 mM). Plates were agitated (gently) for 5 minutes and the absorbance values of the SRB dye-protein adduct at 570 nanometers (A570) were determined using an automated microtiter plate reader (SpectraMax Plus, Molecular Devices). IC50 values were extrapolated from dose response curves of the data using OriginLab Software.

[2] = tested on: mucinous cell lines (JHOM2B, OMC3, and COV644); test: SRB assay, joint statements for the mucinous cell lines incl. effect of BNP7787 on BNP1350-induced cytotoxicity; assay type: cell-based, human; conditions: each of JHOM2B, OMC3, COV644
Description: as §1
as §2, with “JHOM2B cells were cultured in DMEM:F12 (1:1)+0.1 mM non-essential amino acids (NEAA)+10% FBS and were seeded at 6,000 cells per well. OMC3 cells were cultured in HamF12+10% FBS and were seeded at 8,000 cells per well. COV644 cells were cultured in DMEM+2 mM glutamine+10% FBS and were seeded at 6,000 cells per well.” left out
as §3, with “Cells were grown and maintained at 37° C. in a humidified atmosphere containing 5% CO2 in a water jacketed cell culture incubator (Forma Scientific).” left out, “Dead cells detach and float while living cells remain attached to the bottom of the cell well.” left out
The sulforhodamine B (SRB) cytotoxicity assay was used to assess cell survival. […] Plates were agitated (gently) for 5 minutes and the absorbance values of the SRB dye-protein adduct at 570 nanometers (A570) were determined using an automated microtiter plate reader (SpectraMax Plus, Molecular Devices). […]

[3] = Toxicology study of single daily doses given orally and intravenously for five consecutive days; assay type: in vivo; conditions: oral and i.v. single daily doses
[4] = Phase I clinical studies of intravenous Karenitecin; assay type: in vivo, human
Description: Results from three Phase I studies indicate that Karenitecin can be safely administered to subjects at the dose level of 1.0 mg/m^2/day i.v. over a one hour period of time for 5 consecutive days in a 3-week treatment cycle. […] Any gastrointestinal toxicity is generally ≦grade 2 and is not dose-limiting.
Intravenous administration of Karenitecin has been evaluated in three Phase I clinical studies in subjects with the following cancer types: (i) advanced solid tumors (adult subjects) (see, e.g., Schilsky, R. L., Hausheer, F. H., et al., Phase I trial of karenitecin administered intravenously daily for five consecutive days in subjects with advanced solid tumors using accelerated dose titration [abstract]. ASCO Abstract 758 (2000)); (ii) refractory or recurrent solid tumors (pediatric subjects); and (iii) recurrent malignant glioma (adult subjects). Intravenous administration of Karenitecin has also been evaluated in four Phase 2 clinical studies in adult subjects with the following cancer types: (i) primary malignant glioma; (ii) third-line treatment of persistent or recurrent epithelial ovarian or primary peritoneal carcinoma; (iii) malignant melanoma (see, e.g., Hausheer, F. H., et al., Phase II trial of Karenitecin (BNP1350) in malignant melanoma: clinical and translational study [abstract]. ASCO Abstract 7554 (2004); and (iv) relapsed or refractory non-small cell lung cancer (see, e.g., Miller, A. A., et al., MR for the Cancer and Leukemia Group B. Phase II trial of karenitecin in subjects with relapsed or refractory non-small cell lung cancer (CALGB 30004) Lung Cancer 48:399-407 (2005)).

[5] = tested on: advanced ovarian cancer; test: Phase II study in advanced ovarian cancer after failed prior treatments; assay type: in vivo, human
[6] = tested on: solid tumors; conditions: for Time on trial with no evidence of progressive disease: oral
Description: A Phase I clinical trial (the “Oral Karenitecin Phase I Trial”) was performed to determine the maximum tolerated dose (MTD) of oral Karenitecin in subjects with solid tumors given in a dose-escalated manner (starting at 0.5 mg/m^2) and administered 3-times per week (MWF or TTS) for 3 consecutive weeks followed by a one-week treatment rest.
In Stage I, subjects received Karenitecin as a single oral dose 3 times per week for 3 consecutive weeks followed by a one-week treatment rest. In Stage 1, some of subjects underwent pharmacokinetic sampling, and first received a single i.v. dose of Karenitecin (at the appropriate dosage level) followed by oral Karenitecin 4 to 7 days following the i.v. dose on a MWF or TTS schedule. Patients then received oral Karenitecin for all subsequent treatments.
In Stage 2, Karenitecin was administered in a dose-escalated manner to approximately 16 subjects with solid tumors in order to determine the maximum tolerated dose (MTD). The initial dose escalation involved cohorts of one new subject per dose level. The starting dose was 0.5 mg/m^2 and dose escalation proceeded in 0.5 mg/m^2 increments. One-subject cohorts were utilized until the occurrence of a dose-limiting toxicity (DLT) or NCI CTCAE≧grade 2 toxicity was observed during the DLT observation period. Patients in Stage 2 received oral Karenitecin at the appropriate dose level on a MTWTF schedule for three (3) consecutive weeks, followed by a one-week rest period.

[7] = tested on: Fischer rats; conditions: rat, in vivo, iv
[8] = Preclinical toxicology, oral single daily doses for five consecutive days, beagle dogs; conditions: beagle, dog, in vivo, po
[9] = tested on: beagle dogs; test: as above; conditions: oral vs i.v.

## CC[C@@]1(O)C(=O)OCc2c1cc1n(c2=O)Cc2c-1nc1ccccc1c2CC[Si](C)(C)C [Karenitecin, (4S)-4-ethyl-4-hydroxy-11-[2-(trimethylsilyl)ethyl]-1H-pyrano[3′:4′:6,7]indolizino[1,2-b]quinoline-3,14(4H,12H)-dione]
[1]; 2 hour drug exposure, average of Test 1 and Test 2, read-out: IC50, Average
  IC50: 69.5 nM
[1]; 2 hour drug exposure, read-out: IC50, Test 1 (2 replicate plates)
  IC50: 61 ± 4 nM
[1]; 2 hour drug exposure, read-out: IC50, Test 2 (3 replicate plates)
  IC50: 78 ± 9 nM
[1]; read-out: IC50 values
  IC50: 69.5 nM
[2]
  Potency compared with SN38 and topotecan (dose response curves): much more potent
[3]
  Tolerability of oral doses: good tolerability
[4]; i.v. 1.0 mg/m^2/day x5, 3-week cycle, not dose-limiting
  Gastrointestinal toxicity grade: ≤ 2 grade
[4]; i.v., Phase I clinical studies
  Dose-limiting toxicity: non-cumulative, reversible myelosuppression; also recorded: reversible and non-cumulative neutropenia and thrombocytopenia
[4]; to date
  Hypersensitivity reactions reported by subjects: no hypersensitivity reactions
[5]
  Time to Progression (TTP) compared with historical results reported with Topotecan: prolonged
[6]; in vivo, po
  Tolerability of oral administration: generally well-tolerated
[6]; a patient with advanced ovarian cancer
  Time on trial with no evidence of progressive disease: approximately 16 months
[6]; a patient with breast cancer
  Time on trial with no evidence of progressive disease: approximately 19.5 months
[6]; a patient with carcinoma of the parotid gland
  Time on trial with no evidence of progressive disease: approximately 12 months
[6]; a patient with colorectal cancer
  Time on trial with no evidence of progressive disease: approximately 8 months
[6]; a patient with leiomyosarcoma
  Time on trial with no evidence of progressive disease: approximately 7 months
[6]; a patient with melanoma
  Time on trial with no evidence of progressive disease: approximately 15 months
[6]; a patient with neuroendocrine cancer
  Time on trial with no evidence of progressive disease: approximately 23 months
[6]; a patient with non-small cell lung cancer
  Time on trial with no evidence of progressive disease: approximately 36 months
[6]; a patient with pancreatic cancer
  Time on trial with no evidence of progressive disease: approximately 7 months
[6]; a patient with peritoneal papillary adenocarcinoma cancer
  Time on trial with no evidence of progressive disease: approximately 8 months
[6]; a patient with prostate cancer
  Time on trial with no evidence of progressive disease: approximately 7 months
[6]; a patient with refractory small cell cancer
  Time on trial with no evidence of progressive disease: approximately 6 months
[6]; a patient with sarcoma
  Time on trial with no evidence of progressive disease: approximately 9 months
[7]
  Toxicities observed: reversible myelosuppression (predominantly neutropenia)
[8]
  MTD at 5 days: 0.075 mg/kg
[9]
  MTD of oral relative to intravenous (i.v.) Karenitecin: approximately 2 times
